The term IC50 denotes the concentration that inhibits the measured activity by half. The Ki is a dissociation constant, usually derived from enzyme kinetics or from competition with a known ligand.

SMILES strings stand for the structures.

10 molecules from ChEMBL document CHEMBL1909046, “DrugMatrix in vitro pharmacology data” can be followed below.

One data set concerns the target Histamine H2 receptor (Homo sapiens, UniProt P25021). The format is cell membranes, CHO-K1, Membrane. Also: in other assays of this panel Not Active means under 50% inhibition at 10 µM.
A further data set deals with D(3) dopamine receptor (Homo sapiens, UniProt P35462). The experiment in a line: DRUGMATRIX: Dopamine D3 radioligand binding (ligand: [3H] Spiperone). The format is cell membranes, CHO, Membrane.
The target in data set [1] is Sigma non-opioid intracellular receptor 1 (Homo sapiens, UniProt Q99720). The experiment in a line: DRUGMATRIX: Sigma1 radioligand binding (ligand: [3H] Haloperidol). The data set is classed as cell membranes, Jurkat, Membrane. Particulars: jurkat; Not Active = under 50% inhibition at 10 µM.
Another data set deals with T1, Glucocorticoid receptor (Homo sapiens, UniProt P04150).
T1 sequence (P04150 whole entry): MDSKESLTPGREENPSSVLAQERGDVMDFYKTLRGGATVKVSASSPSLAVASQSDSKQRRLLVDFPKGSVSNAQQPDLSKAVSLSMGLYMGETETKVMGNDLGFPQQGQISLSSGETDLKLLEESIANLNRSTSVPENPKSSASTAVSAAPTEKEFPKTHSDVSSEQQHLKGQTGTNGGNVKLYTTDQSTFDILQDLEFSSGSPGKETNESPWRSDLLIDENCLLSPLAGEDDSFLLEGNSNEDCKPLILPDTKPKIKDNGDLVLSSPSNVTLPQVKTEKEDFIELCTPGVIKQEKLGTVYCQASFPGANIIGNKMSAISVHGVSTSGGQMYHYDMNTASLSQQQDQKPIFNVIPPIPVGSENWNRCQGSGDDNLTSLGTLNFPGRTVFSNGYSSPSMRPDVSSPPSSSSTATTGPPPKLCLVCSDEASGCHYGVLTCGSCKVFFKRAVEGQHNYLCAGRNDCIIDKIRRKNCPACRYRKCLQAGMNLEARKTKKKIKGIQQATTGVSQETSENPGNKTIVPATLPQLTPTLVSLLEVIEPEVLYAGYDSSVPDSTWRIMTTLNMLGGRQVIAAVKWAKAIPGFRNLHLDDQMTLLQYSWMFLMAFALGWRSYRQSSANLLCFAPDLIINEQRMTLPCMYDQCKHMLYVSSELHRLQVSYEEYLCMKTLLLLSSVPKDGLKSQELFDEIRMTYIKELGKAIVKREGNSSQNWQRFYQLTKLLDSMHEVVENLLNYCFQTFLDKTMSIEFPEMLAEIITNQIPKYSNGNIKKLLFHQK
The settings on record: hela s3.

For data set [2], the target named is T2, 5-hydroxytryptamine receptor 2C (Homo sapiens, UniProt P28335).
T2 sequence (P28335 whole entry): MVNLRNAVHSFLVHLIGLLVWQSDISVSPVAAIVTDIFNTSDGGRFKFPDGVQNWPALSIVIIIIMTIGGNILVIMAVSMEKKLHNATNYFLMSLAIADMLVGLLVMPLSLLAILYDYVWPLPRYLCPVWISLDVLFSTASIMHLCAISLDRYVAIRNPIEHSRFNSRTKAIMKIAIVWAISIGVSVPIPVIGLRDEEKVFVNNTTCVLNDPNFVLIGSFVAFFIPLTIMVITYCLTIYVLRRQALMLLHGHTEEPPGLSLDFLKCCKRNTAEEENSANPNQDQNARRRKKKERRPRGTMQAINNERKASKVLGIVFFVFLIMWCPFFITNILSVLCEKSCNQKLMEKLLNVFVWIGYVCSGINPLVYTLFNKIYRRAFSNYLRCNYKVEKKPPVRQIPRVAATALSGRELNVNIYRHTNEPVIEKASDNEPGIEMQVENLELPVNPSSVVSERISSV
The experiment in a line: DRUGMATRIX: Serotonin (5-Hydroxytryptamine) 5-HT2C radioligand binding (ligand: [3H] Mesulergine). The format is cell membranes, CHO-K1, Membrane. The settings on record: cho-k1; Not Active = under 50% inhibition at 10 µM.

In data set [3] the target is T3, Polyunsaturated fatty acid lipoxygenase ALOX15 (Oryctolagus cuniculus, UniProt P12530).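 Also: inhibition of 15-lipoxygenase enzyme activity measured with linoleic acid as the substrate; in other assays of this panel Not Active means under 50% inhibition at 10 µM.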
T3 sequence (P12530 whole entry): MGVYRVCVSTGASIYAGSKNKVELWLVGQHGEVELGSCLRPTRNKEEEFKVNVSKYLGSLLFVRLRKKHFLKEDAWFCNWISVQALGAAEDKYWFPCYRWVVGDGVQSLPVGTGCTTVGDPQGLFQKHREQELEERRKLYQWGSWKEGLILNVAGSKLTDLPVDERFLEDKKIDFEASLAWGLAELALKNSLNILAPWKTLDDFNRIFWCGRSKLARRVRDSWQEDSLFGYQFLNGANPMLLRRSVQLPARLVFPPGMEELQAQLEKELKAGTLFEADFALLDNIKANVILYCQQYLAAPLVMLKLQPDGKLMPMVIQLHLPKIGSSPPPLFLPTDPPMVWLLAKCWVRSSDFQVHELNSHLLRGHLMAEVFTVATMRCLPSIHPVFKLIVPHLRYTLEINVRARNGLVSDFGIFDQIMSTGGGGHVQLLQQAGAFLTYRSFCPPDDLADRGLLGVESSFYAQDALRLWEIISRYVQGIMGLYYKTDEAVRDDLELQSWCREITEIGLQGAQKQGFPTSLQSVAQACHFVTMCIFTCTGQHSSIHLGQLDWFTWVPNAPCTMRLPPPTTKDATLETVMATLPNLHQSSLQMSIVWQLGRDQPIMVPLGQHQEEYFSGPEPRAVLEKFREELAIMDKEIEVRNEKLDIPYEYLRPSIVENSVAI
The experiment in a line: biochemical. The format is tissue-based, Reticulocytes.

Data set [4] deals with Tyrosine-protein kinase Fyn (Homo sapiens, UniProt P06241). The experiment in a line: biochemical. The settings on record: insect cells. The data set is classed as cell-based, Insect cells.
Data set [5] addresses T4, Cholecystokinin receptor type A (Homo sapiens, UniProt P32238).
T4 sequence (P32238 whole entry): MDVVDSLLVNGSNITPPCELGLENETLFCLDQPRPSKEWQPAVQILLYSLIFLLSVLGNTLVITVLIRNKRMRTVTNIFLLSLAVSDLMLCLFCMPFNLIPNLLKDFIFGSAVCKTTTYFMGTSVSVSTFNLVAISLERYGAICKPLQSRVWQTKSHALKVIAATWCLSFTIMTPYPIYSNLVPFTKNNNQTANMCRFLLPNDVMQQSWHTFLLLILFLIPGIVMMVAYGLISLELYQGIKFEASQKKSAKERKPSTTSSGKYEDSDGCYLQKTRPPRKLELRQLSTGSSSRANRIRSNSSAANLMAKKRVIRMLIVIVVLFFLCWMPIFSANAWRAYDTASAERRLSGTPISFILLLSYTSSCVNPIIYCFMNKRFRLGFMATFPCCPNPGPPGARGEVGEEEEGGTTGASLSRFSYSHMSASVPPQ
The data set is classed as cell membranes, Membrane. Particulars: 1321-n1.

The next data set concerns the target Cytochrome P450 2C9 (Homo sapiens, UniProt P11712). Particulars: bti-tn-5b1-4. Also: in other assays of this panel Not Active means under 50% inhibition at 10 µM.

Chain of Cytochrome P450 2C9 (P11712 whole entry): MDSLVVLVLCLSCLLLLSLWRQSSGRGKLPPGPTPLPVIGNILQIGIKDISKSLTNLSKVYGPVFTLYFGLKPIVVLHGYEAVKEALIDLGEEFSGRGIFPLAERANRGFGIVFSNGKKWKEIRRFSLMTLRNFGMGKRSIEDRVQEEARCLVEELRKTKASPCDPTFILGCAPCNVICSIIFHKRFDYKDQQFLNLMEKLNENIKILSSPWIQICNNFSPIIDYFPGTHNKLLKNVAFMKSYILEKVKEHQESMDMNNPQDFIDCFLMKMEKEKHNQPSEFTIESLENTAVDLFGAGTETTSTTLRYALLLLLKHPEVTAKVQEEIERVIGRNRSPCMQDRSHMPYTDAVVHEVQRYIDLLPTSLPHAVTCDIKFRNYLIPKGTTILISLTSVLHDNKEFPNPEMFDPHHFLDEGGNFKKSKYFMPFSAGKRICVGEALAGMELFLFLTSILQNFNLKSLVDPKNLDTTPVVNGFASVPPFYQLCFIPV
Chain of D(3) dopamine receptor (P35462 whole entry): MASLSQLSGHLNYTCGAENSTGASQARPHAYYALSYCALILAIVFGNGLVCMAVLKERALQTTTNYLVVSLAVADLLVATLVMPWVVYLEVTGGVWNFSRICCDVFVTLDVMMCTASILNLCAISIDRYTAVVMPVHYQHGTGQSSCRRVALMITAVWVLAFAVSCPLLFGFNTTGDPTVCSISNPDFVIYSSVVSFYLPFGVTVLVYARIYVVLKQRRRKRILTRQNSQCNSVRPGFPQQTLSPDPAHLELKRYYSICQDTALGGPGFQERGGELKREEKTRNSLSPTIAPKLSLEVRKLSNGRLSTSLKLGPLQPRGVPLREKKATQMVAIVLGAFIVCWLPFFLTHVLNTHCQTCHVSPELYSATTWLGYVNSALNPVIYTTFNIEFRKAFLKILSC
Chain of Histamine H2 receptor (P25021 whole entry): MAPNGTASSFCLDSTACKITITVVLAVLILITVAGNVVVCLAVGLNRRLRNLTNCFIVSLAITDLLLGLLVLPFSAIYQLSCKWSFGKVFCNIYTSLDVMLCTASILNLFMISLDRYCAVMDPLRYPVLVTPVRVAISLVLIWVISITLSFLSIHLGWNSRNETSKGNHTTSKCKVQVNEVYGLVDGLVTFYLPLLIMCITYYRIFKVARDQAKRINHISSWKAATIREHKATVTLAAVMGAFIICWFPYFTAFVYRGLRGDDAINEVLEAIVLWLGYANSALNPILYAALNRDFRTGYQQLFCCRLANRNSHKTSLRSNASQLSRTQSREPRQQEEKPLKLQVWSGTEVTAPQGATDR
Chain of Tyrosine-protein kinase Fyn (P06241 whole entry): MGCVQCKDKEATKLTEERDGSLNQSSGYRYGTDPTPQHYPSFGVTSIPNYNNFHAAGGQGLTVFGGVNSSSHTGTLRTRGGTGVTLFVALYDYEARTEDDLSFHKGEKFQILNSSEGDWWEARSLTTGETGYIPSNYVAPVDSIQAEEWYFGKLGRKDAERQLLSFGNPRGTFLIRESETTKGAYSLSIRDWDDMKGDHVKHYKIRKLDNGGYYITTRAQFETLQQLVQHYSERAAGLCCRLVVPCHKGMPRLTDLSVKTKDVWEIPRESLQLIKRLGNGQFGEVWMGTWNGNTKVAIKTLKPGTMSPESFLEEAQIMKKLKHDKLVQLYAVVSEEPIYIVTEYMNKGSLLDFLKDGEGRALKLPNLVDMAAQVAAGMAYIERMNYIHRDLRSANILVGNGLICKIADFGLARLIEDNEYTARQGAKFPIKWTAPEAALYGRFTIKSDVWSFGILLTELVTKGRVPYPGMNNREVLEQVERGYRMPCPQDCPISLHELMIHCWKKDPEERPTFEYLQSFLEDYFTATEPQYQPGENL
Chain of Sigma non-opioid intracellular receptor 1 (Q99720 whole entry): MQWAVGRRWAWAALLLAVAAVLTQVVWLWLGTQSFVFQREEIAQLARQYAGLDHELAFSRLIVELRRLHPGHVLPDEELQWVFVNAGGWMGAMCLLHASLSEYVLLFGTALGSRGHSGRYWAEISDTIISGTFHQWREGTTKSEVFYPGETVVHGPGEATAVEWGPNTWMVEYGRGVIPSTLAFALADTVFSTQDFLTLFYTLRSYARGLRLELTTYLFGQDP

For `CC(=O)N[C@@H]1[C@H](Oc2c3cc4cc2Oc2ccc(cc2Cl)[C@@H](O[C@@H]2O[C@@H](CO)[C@@H](O)[C@H](O)[C@@H]2NC(C)=O)[C@@H]2NC(=O)[C@H](NC(=O)[C@@H]4NC(=O)[C@H]4NC(=O)[C@@H](Cc5ccc(c(Cl)c5)O3)NC(=O)[C@H](N)c3ccc(O)c(c3)Oc3cc(O)cc4c3)c3ccc(O)c(c3)-c3c(O[C@H]4O[C@H](CO)[C@@H](O)[C@@H](O)[C@@H]4O)cc(O)cc3[C@@H](C(=O)O)NC2=O)O[C@@H](CO)[C@@H](O)[C@@H]1O`, the half-inhibitory concentration (IC50) entry (against Histamine H2 receptor (cho-k1); at D(3) dopamine receptor (cho); in [1]; against Glucocorticoid receptor; in [2]; in [3] (reticulocytes)) was “Not Active” throughout. Moreover, the IC50 result (in data set [4]; in [5]; at Cytochrome P450 2C9) was “Not Active” in each case. Also, the inhibitory constant (Ki) result on Cytochrome P450 2C9 is “Not Active”.

For `COc1cc2c(c(OC)c1OC)-c1ccc(OC)c(=O)cc1[C@@H](NC(C)=O)CC2` [COLCHICINE], the IC50 result (against Histamine H2 receptor (cho-k1); on D(3) dopamine receptor (cho); in [1]; on Glucocorticoid receptor; in data set [2]; in data set [3] (reticulocytes)) was “Not Active” each time. Further, the IC50 result (in data set [4]; in data set [5]; against Cytochrome P450 2C9) was “Not Active” each time. On Cytochrome P450 2C9, the Ki entry is “Not Active”.

On to `CC(=O)N1CCN(c2ccc(OCC3COC(Cn4ccnc4)(c4ccc(Cl)cc4Cl)O3)cc2)CC1` (configuration not stated) [KETOCONAZOLE], for which the IC50 on Histamine H2 receptor (read-out: IC50) was 21.9 µM; on D(3) dopamine receptor (cho), “Not Active”; in data set [1] it was “Not Active”; on Glucocorticoid receptor it was “Not Active”; in data set [2], “Not Active”; in data set [3] (read-out: IC50) it was 5.42 µM. In addition, the IC50 result (in data set [4]; in [5]; at Cytochrome P450 2C9) was “Not Active” in each case. In addition, the inhibition constant (Ki) on Histamine H2 receptor (read-out: Ki) is 21.5 µM; at Cytochrome P450 2C9, “Not Active”.

Take `COCCCOc1ccnc(C[S+]([O-])c2nc3ccccc3[nH]2)c1C` (configuration not stated) [RABEPRAZOLE]: the IC50 result against Histamine H2 receptor (cho-k1) is “Not Active”; at D(3) dopamine receptor (read-out: IC50), 2.33 µM; in [1], “Not Active”; against Glucocorticoid receptor, “Not Active”; in data set [2], “Not Active”; in data set [3] (reticulocytes), “Not Active”. The IC50 entry (in [4]; in data set [5]; on Cytochrome P450 2C9) was “Not Active” in each case. The inhibition constant Ki on D(3) dopamine receptor (read-out: Ki) was 0.79 µM; at Cytochrome P450 2C9 it was “Not Active”.

As for `CNC(=C[N+](=O)[O-])NCCSCc1ccc(CN(C)C)o1` [RANITIDINE], the IC50 entry (on Histamine H2 receptor (cho-k1); at D(3) dopamine receptor (cho); in data set [1]; against Glucocorticoid receptor; in data set [2]; in data set [3] (reticulocytes)) was “Not Active” throughout. The IC50 result (in [4]; in data set [5]; against Cytochrome P450 2C9) was “Not Active” in each case. Also, the Ki entry on Cytochrome P450 2C9 is “Not Active”.

As for `CO[C@H]1/C=C/O[C@@]2(C)Oc3c(C)c(O)c4c(c3C2=O)C2=NC3(CCN(CC(C)C)CC3)NC2=C(NC(=O)/C(C)=C\C=C\[C@H](C)[C@H](O)[C@@H](C)[C@@H](O)[C@@H](C)[C@H](OC(C)=O)[C@@H]1C)C4=O` [RIFABUTIN], the IC50 result (at Histamine H2 receptor (cho-k1); at D(3) dopamine receptor (cho); in data set [1]; against Glucocorticoid receptor; in [2]; in data set [3] (reticulocytes)) was “Not Active” each time. For the same molecule, the half-maximal inhibitory concentration (IC50) entry (in [4]; in data set [5]; against Cytochrome P450 2C9) was “Not Active” in each case. In addition, at Cytochrome P450 2C9, the Ki entry is recorded as “Not Active”.

For the molecule `CC(C)CC(N(C)C)C1(c2ccc(Cl)cc2)CCC1` (configuration not stated) [SIBUTRAMINE], the 50% inhibitory concentration (IC50) entry (against Histamine H2 receptor (cho-k1); on D(3) dopamine receptor (cho); in data set [1]; against Glucocorticoid receptor; in data set [2]; in [3] (reticulocytes)) was “Not Active” each time. Moreover, the 50% inhibitory concentration (IC50) entry (in data set [4]; in [5]; against Cytochrome P450 2C9) was “Not Active” in each case. For the same molecule, the Ki entry at Cytochrome P450 2C9 is reported as “Not Active”.

With `[H]/N=C(/N)N[C@H]1[C@H](O)[C@@H](O)[C@H](O[C@@H]2O[C@@H](C)[C@](O)(C=O)[C@H]2O[C@@H]2O[C@@H](CO)[C@H](O)[C@@H](O)[C@@H]2NC)[C@@H](N/C(N)=N\[H])[C@@H]1O` [STREPTOMYCIN], the IC50 entry (against Histamine H2 receptor (cho-k1); on D(3) dopamine receptor (cho); in [1]; on Glucocorticoid receptor; in data set [2]; in [3] (reticulocytes)) was “Not Active” in each case. The IC50 result (in data set [4]; in [5]; against Cytochrome P450 2C9) was “Not Active” in each case. For the same molecule, the inhibition constant Ki entry on Cytochrome P450 2C9 is “Not Active”.

As to `Cc1cc(C)nc(NS(=O)(=O)c2ccc(N)cc2)n1` [SULFAMETHAZINE], the IC50 entry (at Histamine H2 receptor (cho-k1); at D(3) dopamine receptor (cho); in [1]; at Glucocorticoid receptor; in data set [2]; in [3] (reticulocytes)) was “Not Active” in each case. The half-maximal inhibitory concentration (IC50) result (in [4]; in data set [5]; against Cytochrome P450 2C9) was “Not Active” in each case. At Cytochrome P450 2C9, the Ki result is given as “Not Active”.

Turning to `C[C@]1(Cn2ccnn2)[C@H](C(=O)O)N2C(=O)C[C@H]2S1(=O)=O` [TAZOBACTAM], the IC50 entry (at Histamine H2 receptor (cho-k1); at D(3) dopamine receptor (cho); in [1]; against Glucocorticoid receptor; in [2]; in data set [3] (reticulocytes)) was “Not Active” in each case. The 50% inhibitory concentration (IC50) entry (in [4]; in data set [5]; against Cytochrome P450 2C9) was “Not Active” throughout. The inhibition constant (Ki) result on Cytochrome P450 2C9 is reported as “Not Active”.
